# Patent US10563244B2, “Nanopatterned extracellular matrices enable cell-based assays with a mass spectrometric readout” (NORTHWESTERN UNIVERSITY, priority 2016, dated 2020)
# Tested on: cellular phosphatases (phosphotyrosine phosphatases) in HeLa cells
# Test: TCAL-SAMDI cell-based phosphatase activity assay (HeLa cells on fibronectin nanoarrays, lysis, SAMDI-MS readout)
# Procedure: Cell-Based Assay for Enzyme Activity. HeLa cells were obtained from ATCC and cultured in DMEM medium supplemented with fetal bovine serum, glutamine, penicillin and streptomycin. All cells were cultured in a humidified incubator at 37° C. and 5% CO2. Cells were trypsinized and suspended in media, and the average number of cells per μL was estimated using a hemocytometer to seed the desired number of cells per spot. The volume of media per spot was 3 μL for all experiments. Cells were cultured on the monolayers presenting fibronectin and the phosphatase peptide substrate on glass slides for 2 hours under standard growth conditions. Lysis buffer (1 μL) was delivered manually to each spot and the lysate was allowed to react with the monolayer for 1 hour at 37° C. in a humidity chamber. […] A solution of 2,4,6-trihydroxyacetopehenone (THAP) in acetone (30 mg/mL) was delivered to each spot on the array and the surfaces were analyzed using an Applied Biosystems 5800 MALDI TOF/TOF instrument with a 20 kV accelerating voltage in positive reflector mode. […]
# HeLa cells were seeded on the fibronectin nanopatterned surfaces and cultured the cells for two hours under standard media conditions (FIG. 4A). […] The mixed monolayer was rinsed with PBS buffer and then treated with 2,4,6-trihydroxyacetophenone (THAP) matrix (30 mg/mL in acetone) and analyzed with SAMDI-MS. […]
smiles,measurement,setting,value
"O=C(CBr)c1ccc(O)cc1 [PTPI-I, PTP Inhibitor I]",decrease in phosphatase activity,"HeLa cells, 300 μM added to cell cultures, two hour culture period, then lysis and SAMDI-MS",92%
same,"phosphatase activity after addition of inhibitor (SAMDI spectra, FIG. 4C)","figure legend says inhibitor added to the lysis buffer, HeLa cells on patterned monolayers",loss of phosphatase activity
